Results: patent US20260183399A1, “METHOD FOR MODULATING KINASE ACTIVITY AND USE THEREOF” (CENTER FOR EXCELLENCE IN MOLECULAR CELL SCIENCE, CHINESE …, priority 2022, published 2026)

How the values were obtained:
[1] = biological target: T1, LKB1 kinase (Homo sapiens, UniProt Q15831); assay: In vitro kinase experiment with LKB1 kinase (excluding STRAD1 and MO25) and His-AMPK α1; assay type: biochemical; conditions: metabolite 100 μM; FIG. 1J
T1 construct: the general method says FLAG-LKB1 instead) (N); made in house; host or cells: HEK293T (293T) cells, transfected; immunoprecipitation
T1 sequence (Q15831 1-433): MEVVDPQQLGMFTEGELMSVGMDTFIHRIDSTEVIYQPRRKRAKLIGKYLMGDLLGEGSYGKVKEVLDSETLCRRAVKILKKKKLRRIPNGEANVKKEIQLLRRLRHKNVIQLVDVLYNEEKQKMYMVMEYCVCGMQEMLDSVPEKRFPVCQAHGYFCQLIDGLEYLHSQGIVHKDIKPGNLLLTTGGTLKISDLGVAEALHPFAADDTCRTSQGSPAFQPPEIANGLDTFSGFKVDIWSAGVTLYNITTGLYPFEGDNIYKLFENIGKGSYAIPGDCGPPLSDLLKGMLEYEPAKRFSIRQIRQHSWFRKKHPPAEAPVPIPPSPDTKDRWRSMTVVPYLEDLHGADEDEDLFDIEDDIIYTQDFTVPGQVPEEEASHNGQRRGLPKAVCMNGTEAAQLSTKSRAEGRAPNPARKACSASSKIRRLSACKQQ
Method: (§1) The final reaction system for kinase experiment was: 50 mM Tris HCl, 10 mM MgCl2, 1 mM DTT, and 100 μM ATP. HEK293T cells were co-transfected with equal amounts of GST-LKB1, FLAG-STRAD, MYC-MO25 plasmids or solely transfected with FLAG-LKB1 plasmid. The cells were collected, processed for immunoprecipitation using GST beads or FLAG beads, washed three times with cell lysis buffer containing NP-40, and washed twice with kinase reaction buffer. The His-AMPK protein was induced and purified using E. coli BL21 competent cells. The kinase was incubated with metabolites at 100 μM at room temperature for 15 minutes before reaction, then added with reaction buffer and His-AMPK protein, and reacted at […] for 30 minutes. The phosphorylation of AMPK protein was detected by Western blot.
The final reaction system for the kinase experiment was 50 mM Tris-HCl, 10 mM MgCl2, 1 mM DTT, and 100 μM ATP. […] The kinase complex was pre-incubated with metabolites at room temperature for 15 minutes before reaction. Then the reaction buffer and His-AMPK protein were added, and reacted at 37° C. for 30 minutes. The phosphorylation of AMPK protein was detected by Western blot.

[2] = test system: AMPK α-catalytic subunit phosphorylation in 293T cells; assay: Metabolite treatment of glucose-starved 293T cells, Western blot of AMPK phosphorylation; assay type: cell-based; conditions: glucose starvation 2 hours
Method: Cells were subjected to glucose starvation treatment using glucose free culture medium for 2 hours. The corresponding metabolites were added to the culture medium according to the instructions shown in FIG. 1C and FIG. 1D, so that their concentration in the culture medium reached the labeled level, if there was no labeling, the concentration of metabolites in the culture medium was […]. After treatment, cells were collected to prepare lysis buffer, and the changes in specific proteins and phosphorylation of specific sites were detected by Western blot.
When the expression and function of these metabolic enzymes are inhibited, their corresponding products are decreased. Therefore, we speculate that there may be a mechanism by which AMPK is regulated by metabolite molecules in the glycolytic metabolic pathway, and the activation level of AMPK is related to metabolite content. To verify this hypothesis, we added different doses of exogenous 3-phosphoglycerate (3-PG) to 293T cells subjected to glucose starvation treatment (activation of AMPK signaling pathway). […] After treatment, cells were collected to prepare lysate, and the changes in specific proteins and the changes in phosphorylation sites of AMPK α-catalytic subunit were detected by Western blot.

[3] = biological target: T2, LKB1-STRAD1-MO25 kinase complex (Homo sapiens, UniProt Q15831); assay: In vitro kinase experiment with LKB1 kinase complex and His-AMPK α1; assay type: biochemical
T2 construct: GST (N); made in house; host or cells: HEK293T (293T) cells, co-transfected
T2 sequence (Q15831 1-433): T1 sequence (Q15831 1-433)
T2 sequence (Q7RTN6 1-431 partner): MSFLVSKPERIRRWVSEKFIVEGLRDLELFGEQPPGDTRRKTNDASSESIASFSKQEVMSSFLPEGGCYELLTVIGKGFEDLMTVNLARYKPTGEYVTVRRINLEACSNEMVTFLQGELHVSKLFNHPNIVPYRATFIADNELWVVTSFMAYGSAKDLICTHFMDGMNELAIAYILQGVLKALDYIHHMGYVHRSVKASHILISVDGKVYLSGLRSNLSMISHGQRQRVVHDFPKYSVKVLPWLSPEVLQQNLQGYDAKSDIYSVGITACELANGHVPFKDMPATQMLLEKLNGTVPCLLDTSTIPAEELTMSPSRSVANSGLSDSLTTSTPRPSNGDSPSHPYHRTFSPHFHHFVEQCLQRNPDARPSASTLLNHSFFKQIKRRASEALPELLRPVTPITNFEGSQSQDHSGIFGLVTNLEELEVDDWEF
T2 sequence (Q9Y376 1-341 partner): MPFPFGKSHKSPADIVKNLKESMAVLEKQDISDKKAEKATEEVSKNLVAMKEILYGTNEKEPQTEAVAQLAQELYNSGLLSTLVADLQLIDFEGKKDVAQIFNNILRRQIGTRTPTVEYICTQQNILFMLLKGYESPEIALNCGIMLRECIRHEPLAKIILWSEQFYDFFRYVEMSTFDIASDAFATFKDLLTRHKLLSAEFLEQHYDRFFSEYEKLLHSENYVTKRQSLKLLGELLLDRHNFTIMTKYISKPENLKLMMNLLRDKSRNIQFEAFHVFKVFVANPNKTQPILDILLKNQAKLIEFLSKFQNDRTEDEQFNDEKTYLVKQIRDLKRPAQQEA
Method: as §1
Given that LKB1 is a key upstream kinase that phosphorylates and activates the AMPK a subunit, we speculate that the aforementioned metabolites may affect the phosphorylation activation of AMPK a subunit by LKB1 kinase or LKB1 kinase complex. To verify this hypothesis, GST-LKB1, FLAG-STRAD1, and MYC-MO25 were co-transfected into 293T cells (2 μg of each expression plasmid, and transfected into about 7×10^6 cells). After 48 hours, cells were collected and lysed, and then the LKB1-STRAD1-MO25 kinase complex was subjected to glutathione-agarose bead affinity purification, and co-incubated with the recombinant His-AMPK α1 subunit expressed in E. coli for in vitro kinase experiments. The final reaction system for kinase experiment was: 50 mM Tris HCl, 10 mM MgCl2, 1 mM DTT, 100 μM ATP. At the same time, metabolites such as 3-phosphoglyceraldehyde (GAP) or 3-phosphoglycerate (3-PG) were added to 100 μM according to the diagram (as shown in FIG. 1H), or to a concentration of 50-400 μM as shown in the diagram (as shown in FIG. 1I). The kinase complex was pre-incubated with metabolites at room temperature for 15 minutes before reaction. Then the reaction buffer and His-AMPK protein were added, and reacted at 37° C. for 30 minutes. The phosphorylation of AMPK protein was detected by Western blot.

[4] = biological target: T3, recombinant human PGK1 protein (Homo sapiens, UniProt P00558); assay: In vitro enzyme activity of PGK1 (ATP detection kit, IC50 inhibition curve); assay type: biochemical; conditions: S33 0, 1, 3, 5, 7, 10, 30 μM; 37° C. for 25 minutes; FIG. 1F
T3 construct: made in house; host or cells: Escherichia coli
T3 sequence (P00558 1-417): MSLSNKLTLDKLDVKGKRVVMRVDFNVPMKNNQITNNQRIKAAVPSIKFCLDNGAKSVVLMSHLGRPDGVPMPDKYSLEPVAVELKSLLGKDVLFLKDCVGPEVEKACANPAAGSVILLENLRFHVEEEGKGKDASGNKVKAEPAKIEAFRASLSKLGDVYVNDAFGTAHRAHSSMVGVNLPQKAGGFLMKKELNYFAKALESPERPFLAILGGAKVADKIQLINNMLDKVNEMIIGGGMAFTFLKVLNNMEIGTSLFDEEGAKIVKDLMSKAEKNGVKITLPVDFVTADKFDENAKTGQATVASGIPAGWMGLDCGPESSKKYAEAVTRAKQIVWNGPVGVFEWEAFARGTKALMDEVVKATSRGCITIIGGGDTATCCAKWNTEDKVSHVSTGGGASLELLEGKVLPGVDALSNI
Method: A substrate buffer mixture with a final concentration of 10 mM KH2PO4, pH7.0, 2 mM GAP, 0.6 mM β-NAD, 0.4 mM ADP, 10 mM MgSO4, 200 mM Glycine, and 0.01 μg/μL GAPDH was prepared. The purified hPGK1 recombinant protein was diluted to 0.2 ng/μL. Inhibitors were added to the protein and a concentration gradient was set up. Each reaction was added with 100 μl of substrate and a mixture of 100 μl hPGK1 protein and inhibitor, and reacted at 37° C. for 25 minutes. After centrifuged at 10000 rpm for 10 minutes at 4° C., 100 μl of supernatant was taken. In the ATP detection kit (Beyotime S0026), the ATP detection solution was diluted with ATP detection diluent at a ratio of 1:10. In a 96 well blank plate, each well was added with 100 μl of diluted detection solution, and let it stand at room temperature for 5 minutes, added with 100 μl of supernatant from enzyme activity reaction, and reacted for 5 seconds, and a microplate reader was used to read the fluorescence value. The relative enzyme activity was calculated based on fluorescence values and IC50 values were calculated using GraphPad nonlinear regression fitting.
The compound (S33, patent number: ZL201610826187. X) reported in the previous patent is a PGK1 inhibitor (FIG. 1E), and we determined the inhibitory activity of compound S33 on PGK1. […]

[5] = test system: AMPK pathway (AMPK α-catalytic subunit and ACC1 phosphorylation) in HeLa and 293T cells; assay: S33 treatment of HeLa and 293T cells, Western blot of AMPK pathway; assay type: cell-based; conditions: 2, 5 and 10 μM, 2 hours, dose-dependent, FIG. 1G
Method: In order to investigate the regulatory effect of PGK1 inhibition on AMPK pathway, different concentrations of S33 (2, 5, and 10 μM, respectively) were added to the culture supernatants of HeLa and 293T cells, and treated for 2 hours. Cell lysate was collected and the changes in specific proteins and in AMPK α-catalytic subunit phosphorylation sites, as well as the phosphorylation of the classical substrate ACC1, downstream of the AMPK pathway, were detected by western blot.

| SMILES | phosphorylation of AMPK α1 by LKB1 kinase [1] | phosphorylation of AMPK α1 by LKB1 kinase complex ([3]; metabolite 100 μM, FIG. 1H) | other results |
| --- | --- | --- | --- |
| O=C(COP(=O)(O)O)[C@@H](O)[C@H](O)[C@H](O)COP(=O)(O)O [1,6-fructose diphosphate] | had no such effect | – | – |
| O=C(O)[C@@H](CO)OP(=O)(O)O [2-phosphoglycerate] | significantly inhibit | – | AMPK α-catalytic subunit phosphorylation signaling ([2]; metabolite 200 μM, FIG. 1D): inhibitory effects |
| O=CC(O)COP(=O)(O)O (stereo not drawn) [3-phosphoglyceraldehyde] | had no such effect | had no such effect | – |
| O=C(O)[C@H](O)COP(=O)(O)O [3-phosphoglycerate] | significantly inhibit | strongly inhibited | intracellular AMPK α-catalytic subunit phosphorylation signaling ([2]; metabolite 100-800 μM, FIG. 1C): significantly inhibited intracellular AMPK α-catalytic subunit phosphorylation signaling in a dose-dependent manner; phosphorylation of AMPK α1 by LKB1 kinase complex ([3]; metabolite 50-400 μM, FIG. 1I): inhibits the phosphorylation of AMPK α1 by LKB1 kinase complex in a dose-dependent manner |
| COc1cc2nc(N3CCC(N(C)C(=O)C4CCCO4)CC3)nc(N3CCOCC3)c2cc1Cl (stereo not drawn) [S33] | – | – | inhibitory activity of compound on PGK1 [4]: effective inhibitor of PGK1; ACC1 phosphorylation [5]: upregulate; AMPK α-catalytic subunit phosphorylation [5]: upregulate |
